Laboratory results reported in patent publication US7671019B2, “3-deoxyglucosone and skin” (Dynamis Therapeutics, Inc., priority 2002, dated 2010).
Several values for one entry are separate records, joined by “and”; a condition that tells them apart may be missing. Equal values may be shown once. Each block holds one compound with its values, some of them ahead of it.

Columns and labels:
[1] = target: T1, Calf skin collagen Type 1 (Bos taurus, UniProt P02453+P02465); assay: 3DG-induced collagen crosslinking, CNBr digestion and SDS-PAGE; format: biochemical; conditions: 37° C., 24 hours
T1 construct: Calf skin collagen Type 1 (1.3 mg; Sigma); purchased Sigma; host or cells: calf skin (tissue-derived)
T1 sequence (P02453 162-1217 limits assumed): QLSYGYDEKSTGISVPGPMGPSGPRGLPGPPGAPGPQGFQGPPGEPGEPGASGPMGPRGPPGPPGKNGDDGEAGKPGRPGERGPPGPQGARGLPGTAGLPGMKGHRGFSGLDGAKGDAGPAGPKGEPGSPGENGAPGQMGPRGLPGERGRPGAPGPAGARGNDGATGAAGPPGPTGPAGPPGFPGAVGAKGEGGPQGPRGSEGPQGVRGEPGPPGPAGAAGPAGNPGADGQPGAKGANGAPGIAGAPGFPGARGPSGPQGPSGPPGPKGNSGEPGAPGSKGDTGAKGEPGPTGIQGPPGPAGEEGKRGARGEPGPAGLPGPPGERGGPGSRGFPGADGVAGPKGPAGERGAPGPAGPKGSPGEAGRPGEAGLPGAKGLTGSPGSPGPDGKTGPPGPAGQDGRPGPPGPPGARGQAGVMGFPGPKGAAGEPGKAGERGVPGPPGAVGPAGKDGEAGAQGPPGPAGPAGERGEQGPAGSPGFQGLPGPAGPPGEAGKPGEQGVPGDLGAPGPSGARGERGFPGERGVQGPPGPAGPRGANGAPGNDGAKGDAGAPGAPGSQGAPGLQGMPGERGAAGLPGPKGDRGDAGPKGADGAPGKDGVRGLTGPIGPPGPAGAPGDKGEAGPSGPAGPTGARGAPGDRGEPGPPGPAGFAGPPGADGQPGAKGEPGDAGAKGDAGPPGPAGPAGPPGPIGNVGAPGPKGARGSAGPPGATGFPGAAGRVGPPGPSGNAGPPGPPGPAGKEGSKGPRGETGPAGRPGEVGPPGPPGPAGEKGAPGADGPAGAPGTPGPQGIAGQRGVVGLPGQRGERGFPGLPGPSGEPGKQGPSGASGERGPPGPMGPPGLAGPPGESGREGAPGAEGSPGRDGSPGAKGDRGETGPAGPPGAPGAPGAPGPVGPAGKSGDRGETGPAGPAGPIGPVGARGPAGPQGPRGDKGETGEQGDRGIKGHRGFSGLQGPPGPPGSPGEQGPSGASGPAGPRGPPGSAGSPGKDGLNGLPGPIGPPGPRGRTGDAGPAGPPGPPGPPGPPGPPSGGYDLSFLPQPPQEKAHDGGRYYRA
T1 sequence (P02465 80-1117 limits assumed): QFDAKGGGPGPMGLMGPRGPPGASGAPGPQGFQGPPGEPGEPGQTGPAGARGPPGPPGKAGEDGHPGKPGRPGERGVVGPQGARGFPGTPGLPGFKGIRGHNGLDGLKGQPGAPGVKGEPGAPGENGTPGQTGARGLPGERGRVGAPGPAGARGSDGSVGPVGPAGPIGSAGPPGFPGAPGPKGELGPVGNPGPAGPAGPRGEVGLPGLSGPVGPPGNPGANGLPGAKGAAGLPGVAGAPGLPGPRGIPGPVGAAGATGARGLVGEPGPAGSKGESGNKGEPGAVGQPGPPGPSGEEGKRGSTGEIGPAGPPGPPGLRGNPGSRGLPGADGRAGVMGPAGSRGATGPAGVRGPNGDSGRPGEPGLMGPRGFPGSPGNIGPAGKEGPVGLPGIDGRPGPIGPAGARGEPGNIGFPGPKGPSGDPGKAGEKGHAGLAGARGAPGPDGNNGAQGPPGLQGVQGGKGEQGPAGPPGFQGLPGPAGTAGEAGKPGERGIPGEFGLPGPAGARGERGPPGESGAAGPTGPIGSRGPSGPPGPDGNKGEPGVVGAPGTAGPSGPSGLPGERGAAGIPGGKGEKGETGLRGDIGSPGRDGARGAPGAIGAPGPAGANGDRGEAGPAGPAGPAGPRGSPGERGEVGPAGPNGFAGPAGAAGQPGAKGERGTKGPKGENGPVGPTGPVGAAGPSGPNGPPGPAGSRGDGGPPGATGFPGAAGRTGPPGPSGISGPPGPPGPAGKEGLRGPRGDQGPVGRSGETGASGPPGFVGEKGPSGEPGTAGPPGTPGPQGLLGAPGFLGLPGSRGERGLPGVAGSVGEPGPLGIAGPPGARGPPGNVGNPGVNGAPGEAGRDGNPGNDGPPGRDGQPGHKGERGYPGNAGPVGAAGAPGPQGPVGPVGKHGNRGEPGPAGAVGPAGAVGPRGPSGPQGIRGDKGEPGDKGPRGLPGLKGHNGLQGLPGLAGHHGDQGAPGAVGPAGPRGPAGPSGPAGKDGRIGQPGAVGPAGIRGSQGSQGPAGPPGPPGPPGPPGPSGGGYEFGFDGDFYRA
Procedure: Collagen type I was treated with 3DG in the presence or absence of arginine. The samples were subjected to cyanogen bromide (CNBr) digestion, electrophoresed on a 16.5% SDS Tris-tricine gel, and then the gels were processed using silver stain techniques to visualize the proteins. Lane 1 contains molecular weight marker standards. Lanes 2 and 5 contain 10 and 20 μl of the collagen mixture following CNBr digestion. Lanes 3 and 6 contain the collagen mixture treated with 3DG and then digested with CNBr, and loaded at 10 and 20 μl, respectively. Lanes 4 and 7 contain the mixture of collagen incubated with 5 mM 3DG and 10 mM arginine and then digested with CNBr, and loaded at 10 and 20 μl, respectively.
Collagen I was incubated in the presence or absence of 3DG in vitro. Calf skin collagen Type 1 (1.3 mg; Sigma) was incubated in 20 mM Na-phosphate buffer, pH 7.25, either alone, with 5 mM 3DG, or with 5 mM 3DG plus 10 mM arginine, in a total volume of 1 ml at 37° C. for 24 hours and then frozen and lyophilized. The residue was dissolved in 0.5 ml of 70% formic acid and cyanogen bromide was added (20:1, w/w). This solution was incubated at 30° C. for 18 hours. […] The extent of collagen crosslinking was determined by applying equal volumes of sample and analyzing by SDS-PAGE electrophoresis (16.5% Tris-tricine gel), as determined by the effects of 3DG on the migration of collagen.

3DG = assay: Plasma 3DG levels in diabetic and non-diabetic rats treated with 3-O-methyl sorbitollysine; format: in vivo; conditions: 50 mg/kg injections, within one week
Procedure: A cohort of twelve diabetic rats was divided into two groups of six. The first group received saline-only injections, and the second received injections of 3-O-methyl sorbitollysine (50 mg/kg body weight) in saline solution. The same procedure was conducted on a cohort of twelve non-diabetic rats.

[2] = Locus of 3-O-methyl sorbitollysine uptake in vivo (tissue, urine, plasma analysis); parameters: species or system rats
Procedure: Six rats were injected intraperitoneally with […] (4.4 mg) of 3-O-methyl sorbitollysine. Urine was collected for 3 hours, after which the rats were sacrificed. The tissues to be analyzed were removed and freeze clamped in liquid nitrogen. Perchloric acid extracts of the tissues were used for metabolite analysis. The tissues examined were taken from the brain, heart, muscle, sciatic nerve, spleen, pancreas, liver, and kidney. Plasma was also analyzed.

[3] = Skin elasticity (vacuum pull needed to displace skin) in STZ-diabetic and normal rats; format: in vivo; conditions: 50 mg/kg daily subcutaneous, eight weeks
Procedure: Experiments were performed to determine the effects of DYN 12 on the loss of skin elasticity associated with diabetes. To this end, two groups of STZ-diabetic rats and two groups of normal rats were subjected to treatment with DYN 12 or saline. One group of STZ-diabetic rats (n=9) received daily subcutaneous injections of DYN 12 at 50 mg/kg for eight weeks, as did one group of normal rats (n=6). A group of control diabetic rats (n=10) and a group of normal rats (n=6) received saline instead of DYN 12. One rat was removed from the diabetic DYN 12 group after 2 weeks because its blood glucose readings were inconsistent (too low) with other diabetic rats.
A non-invasive procedure based on CyberDERM, Inc. technology utilizing a skin elasticity measurement device was used to test the effects of DYN 12 treatment on skin elasticity. The procedure provides for non-invasive measurement of skin elasticity based upon the amount of vacuum pull required to displace skin. A suction cup probe is adhered to an area of shaved skin in order to form an airtight seal. Then, a vacuum is applied to the area of the skin inside the suction cup until the skin is displaced past a sensor located inside the probe. Accordingly, the more pressure that is required to displace the skin, the less elastic the skin is.

[4] = Muscle strength of alert diabetic rats; format: in vivo; conditions: measured while alert, preliminary data
Description: The present invention also encompasses methods for prevention of hair loss associated with or mediated by loss of microcirculation and/or loss of neuro-innervation in populations of aging, sclerodermic and/or in diabetic individuals. This is because 3DG is a known precursor to the formation of AGEs which are known to be causally connected to the development of neuropathy. […] This supports the concept that maintenance of nerve conduction and microcirculation that supports nerve innervation is deleteriously affected not only by AGEs, but also 3DG. Similarly, where 3DG would cause blockage of the microcirculation that supports nerve innervation of the hair follicle, the hair follicle will atrophy and die, as is the case in neuropathy.Accordingly, the present invention includes methods for preventing hair loss, where such hair loss is associated with or mediated by the presence of 3DG in the skin proximal to a hair follicle/shaft.
Skin elasticity measurements were also taken on the test subjects as described above, but without sedating the test animals before measurement. FIG. 15 illustrates skin elasticity measurements taken on the hind leg of the test subjects while the subjects were alert and being restrained by a technician.
In these experiments, the animals were fiercely fighting restraint and the results are different.

mouse mesangial cells = assay: Type IV collagen production in kidney cells in vitro; format: cell-based
Procedure: Type IV collagen production was measured in mouse mesangial cells. Controls (grown with […]) produced 300 ng of Type IV collagen per 10,000 cells, whereas fructoselysine treated cells (5 or 10 mM fructoselysine with 10 mM glucose) produced 560 and 1100 ng/10,000 cells.

[5] = parameters: species or system rats; conditions: rat, in vivo
Procedure: Two rats were injected daily with 5 μmols of either FL or mannitol (used as a control) for 5 days. The animals were sacrificed and the kidneys removed and dissected into the cortex and medulla. Tissues were homogenized in 5 volumes of 50 mM Tris-HCl containing 150 mM KCl, 15 mM MgCl2 and 5 mM DTT, pH 7.5. Cellular debris was removed by centrifugation at 10,000×g for 15 minutes, and the supernatant was then centrifuged at 150,000×g for 70 minutes. The soluble proteins were analyzed by SDS PAGE on 12% polyacrylamide gels as well as on 4-15 and 10-20% gradient gels.

[6] = parameters: species or system human; conditions: in vivo
Procedure: Volunteers spent two days on a fructoselysine-free diet and then consumed 22.5 g of the food product prepared as described herein, thus effectively receiving a 2 gram dose of fructoselysine. Urine was collected at 2 hour intervals for 14 hours and a final collection was made at 24 hours. FL was measured by HPLC with a Waters 996 diode Array using a Waters C18 Free Amino Acid column at 46° C. and a gradient elution system of acetonitrile-methyl alcohol-water (45:15:40) into acetonitrile-sodium acetate-water (6:2:92) at 1 ml/min. Quantitation employed an internal standard of meglumine. 3DF was measured by HPLC after deionization of the sample. Analyses were performed on a Dionex DX-500 HPLC system employing a PA1 column (Dionex) and eluting with 32 mM sodium hydroxide at 1 ml/min. Quantitation was performed from standard curves obtained daily with synthetic 3DF. 3DG was measured by GC-MS after deionization of the sample. 3DG was derivatized with a 10-fold excess of diaminonaphthalene in PBS. Ethyl acetate extraction gave a salt free fraction which was converted to the trimethyl silyl ethers with Tri-Sil (Pierce). Analysis was performed on a Hewlett-Packard 5890 selected ion monitoring GC-MS system. […] Quantitation of 3DG employed selected ion monitoring using an internal standard of U-13C-3DG.

SMILES: O=CC(=O)C[C@H](O)[C@H](O)CO [3DG, 3-deoxyglucosone]
collagen crosslinking (migration on SDS-PAGE) ([1]; 5 mM 3DG): caused the collagen to migrate as if it had a higher molecular weight

compound contained in plasma ([2]; 3 hours after i.p. injection): plasma did not
SMILES: COC(C(O)CNCCCCC(N)C(=O)O)C(O)C(O)CO (stereo not drawn) [DYN 12, 3-O-methyl sorbitollysine]
plasma 3DG level (3DG; Diabetic rats): 0.44 ± 0.10 µM
plasma 3DG level (3DG; Non-diabetic rats): 0.13 ± 0.02 µM
% 3OMeSL recovered (injected dose recovered from urine and kidney) ([2]; individual rats, urine plus kidneys, 3 hours, listed as 3OMeSL): 91.5% and 38.8% and 96.4% and 61.2% and 53.0% and 53.3%
amount of pressure needed to displace the skin [3]: 3.2±1.2 kPA
muscle strength vs diabetic rats not so treated [4]: stronger muscle strength

SMILES: N=C(N)NCCC[C@H](N)C(=O)O [arginine]
inhibition of 3DG induced collagen crosslinking (high molecular weight bands) ([1]; 5 mM 3DG plus 10 mM arginine): fewer high molecular bands

time of peak 3DF excretion in urine after the FL bolus [6]: about 4 hours
SMILES: N[C@@H](CCCCNCC(=O)[C@@H](O)[C@H](O)[C@H](O)CO)C(=O)O [fructoselysine, 1-deoxy-1-(e-aminolysine)-fructose]
Type IV collagen produced (mouse mesangial cells; 5 mM fructoselysine with 10 mM glucose): 560 ng/10,000 cells
Type IV collagen produced (mouse mesangial cells; 10 mM fructoselysine with 10 mM glucose): 1100 ng/10,000 cells
soluble kidney proteins on SDS PAGE vs mannitol-injected animal [5]: lower molecular weight bands were missing or visually reduced
